In patent US20030064989A1, “Inhibitors of cell proliferation, angiogenesis, fertility, and muscle contraction” (priority 2001, published 2003):
Where “and” joins values, the source holds several entries; their conditions need not be identical. Equal values may be shown once. Entries after “also recorded” stand apart in the source; their conditions may differ.

Key:
[1] = system: chick chorioallantoic membrane (CAM); assay: Chick chorioallantoic membrane (CAM) assay, CAM area; details: for LOAEL / LOAEL (Molar) / NOAEL (Molar) / LOAEL (mg/ml): day 5-6 CAMs, 24 hours; for minimal effective concentration: Gallus gallus, 24 h, read-out: lowest effective dose on CAM area; for effect on CAM area: 5e-11M
Description: The chick chorioallantoic membrane (CAM) assay is perhaps the most widely used assay for screening anti-angiogenic or growth inhibitory compounds (see, e.g. Ribatti et al., Int. J. Dev. Biol. 40:1189-1197 (1996)). Cell proliferation and angiogenesis were evaluated by measuring CAM area and BrdU labeling using the CAM assay as modified by Melkonian et al., J. Exp. Zool. (2001), in review. Fertilized chicken eggs were purchased from Hy-Line International (Lakeview, CA), then incubated at 37° C. at 85-90% relative humidity throughout the experiment. Experiments were done to evaluate cell proliferation, angiogenesis, and vascularization in CAMs between days 5 and 6 after fertilization. Albumin (2.5-3.0 cc) was removed on the fourth day after fertilization to drop the embryo away from the shell. Windows were then made in shells, and sealed with transparent tape to allow subsequent access to the CAM for experimental treatment. 200 μl of either EBSS-H or different concentrations of pure chemicals were added to the surface of each CAM at 10 AM on the fifth day after fertilization. A sham control group in which the window was opened and resealed was also included in each experiment. In all cases, the following five concentrations of test reagents were used, 5×10^−3 M, 5×10^−5 M, 5×10^−7M, 5×10^−9 M and 5×10^−11M. For 2-ethylpyridine and 3-ethylpyridine additional concentrations of 5×10^−12M, 5×10^−13M, 5×10^−14 M and 5×10^−15 M were used. For nicotine and nornicotine, concentrations of 5×10^−4 M, 5×10^−6 M, 5×10^−8 M and 5×10^−10 M were also used. Development was terminated at 10 AM on the sixth day after fertilization by fixing the embryo and the CAM with 3% glutaraldehyde in 0.1M cacodylate buffer (pH 7.4) for 2 hours at room temperature. A small volume of fixative was also injected under the CAM. The CAMs were later dissected from eggs, post-fixed in the same fixative for 24 hours at room temperature, then thoroughly rinsed in PBS.
At least 6 CAMs were used in each control and experimental group. Parameters which measure aspects of cell proliferation, angiogenesis, and vacularization were quantified for each CAM. These parameters include: (1) for cell proliferation—CAM area, BrdU labeling of nuclei; (2) for angiogenesis—blood vessel pattern, blood vessel area, blood vessel diameter, and blood vessel branching; (3) for vascularization—density of angiogenic clusters. The area of each CAM was measured by placing the CAMs in PBS in a Petri dish under a Wild-M5A dissecting microscope (Max ERB instrument Co., Burbank, CA), then measuring the longest and shortest length of each CAM with a ruler to the precision of 0.5 mm. The data were recorded into Excel spreadsheet. CAM area was calculated using the formula:
where A=longest length, B=longest width, π=3.14.
Means and standard deviations were then calculated for each control and treatment group. The treated group means were used to compare with control means to determine the effect of each chemical on CAM growth.
On the fifth day after fertilization, either EBSS-H or different concentrations of test chemicals were added to each CAM. A sham group in which windows were opened and resealed without adding any solution was also included to determine if the vehicle EBSS-H had any effect on CAM area. Development was terminated 24 hours later, and CAMs were measured as described in Materials and Methods.

nuclei of day 5 CAMs = assay: BrdU labeling of CAMs (cell proliferation); type: in vivo, chick
Description: Eight hours after the initial EBSS-H or chemical treatment on day 5 after fertilization, […] BrdU (Sigma, St. Louis, Mo.) were added to each CAM surface. Another 55 minutes after the BrdU treatment, the development of the CAMs was terminated by transferring the embryos and CAMs into a −20° C. freezer for 2-3 minutes. Embryos and CAMs were then fixed at −20° C. in 70% ethanol containing 50 mM glycine buffer, pH 2.0 for 1.5 hours. CAMs were then dissected out of the eggs, washed in PBS and dehydrated in 30%, 50%, 75%, 90% and 100% ethanol series. Dehydrated CAM tissues were further processed in Hypercenter II Tissue Processing System (Shandon Inc., Pittsburgh, Pa.), then embedded in paraffin using Sakura Tissue-TE (Shandon Inc., Pittsburgh, Pa.). Paraffin Sections were cut using a S20 Spencer microtome (Labequip, American Optical Corp., Ontario, Canada), and were mounted on Superfrost/plus glass slides (Fisher Scientific, Tustin, CA). Sections were deparaffinized with 3 changes of Hemo-De for 15 minutes each, 2 changes of 100% ethanol for 5 minutes each, then rehydrated in PBS. […] Images were recorded using a Spot digital camera-SP401-115 (Diagnostic Instruments, Sterling Heights, MI) and processed and montaged using Adobe Photoshop (San Jose, Calif.). […]

[2] = system: blood vessels of the chick chorioallantoic membrane (CAM); assay: CAM angiogenesis: blood vessel area, pattern formation, capillary plexus; type: in vivo
Description: (2001), in review. […] The surface of each CAM was further dissected out of the CAM pocket in PBS. CAMs were then flattened with 18×18-1.5 Fisherbrand microscope cover slip (Fisher Scientific, Pittsburgh, Pa.) in Fisherbrand 60×15 mm standard sterile polystyrene petri dish (Fisher Scientific, Pittsburgh, Pa.). […] Pattern formation was evaluated blindly using video image montages projected on a computer monitor. Images were ranked on a scale of 0 to 3, with 0 being similar to control CAMs and 3 being most dissimilar from controls. The area occupied by major blood vessels in control and chemically treated CAMs was measured in digitalized images projected on a computer monitor using NIH image. Boxes (2.4 c 1.98 mm) were placed in each corner of each CAM image, which had been processed to visualize the major blood vessels. The percentage of pixels occupied by the blood vessels was quantified in each box and an average percentage was computed from the four boxes measured from each CAM. These values were used to compute means and standard deviations for each group. Blood vessel diameter and branching were measured in images projected on a computer monitor using NIH Image software. Density of angiogenic clusters was evaluated in toluidine blue stained histological sections that were digitalized and projected on a computer monitor.

Compound	LOAEL ([1]; CAM area)	LOAEL (Molar) ([1]; CAM area)	NOAEL (Molar) ([1]; CAM area)	minimal effective concentration [1]	also measured
Cc1cccnc1C [2,3-dimethylpyridine]	0.00536 mg/mL	50 µM	500 nM	50 µM and 5.36 µg/mL	
Cc1cc(C)nc(C)c1 [2,4,6-trimethylpyridine]	0.0061 mg/mL	50 µM	500 nM	50 µM and 6.1 µg/mL	
Cc1ccnc(C)c1 [2,4-dimethylpyridine]	0.00536 mg/mL	50 µM	500 nM	50 µM and 5.36 µg/mL	
CCc1ccccn1 [2-ethylpyridine]	5.36e-10 mg/mL	5e-06 µM	0.0005 nM	5e-06 µM and 5.4e-07 µg/mL	CAM size compared with control groups ([1]; 5e-3M): significantly smaller; lowest effective dose lower than that of the single pyridine ring ([1]; CAM area): 10 million; CAM growth / size compared with control ([1]; dose not stated): significantly inhibited; incorporation of BrdU into nuclei (nuclei of day 5 CAMs; 5e-11, eight hours): significantly less incorporation of BrdU; major blood vessel pattern formation ([2]; 5e-3M): disturbance in major blood vessel pattern formation; dendritic branching pattern ([2]; all doses tested): disrupted; formation of the capillary plexus ([2]; in vivo): significantly inhibited; also recorded: failed to form; dose at which blood vessel area was significantly decreased ([2]; vs EBSS control, exposed day 5, evaluated day 6): 50 pM
Cc1ccccn1 [2-methylpyridine]		0.005 µM	0.05 nM	0.005 µM and 0.000466 µg/mL	LOAEL (mg/ml) ([1]; CAM area): 4.66e−7 mg/lml mg/ml; incorporation of BrdU into nuclei (nuclei of day 5 CAMs; 5e-9, eight hours): significantly less incorporation of BrdU
Cc1cccnc1 [3-methylpyridine]		0.005 µM	0.05 nM	0.005 µM and 0.000466 µg/mL	LOAEL (mg/ml) ([1]; CAM area): 4.66e−7 mg/lml mg/ml
c1cc(-c2ccncc2)ccn1 [4,4-bipyridine]	0.0781 mg/mL	500 µM	50000 nM	500 µM and 78.1 µg/mL	
C=Cc1ccncc1 [4-ethenylpyridine]	0.00526 mg/mL	50 µM	500 nM	50 µM and 5.26 µg/mL	
c1ccncc1 [Pyridine, pyridine, reference compound]	0.00396 mg/mL	50 µM	500 nM	50 µM and 3.96 µg/mL	
Cn1cccc1-c1cccnc1 [b-nicotyrine, 3-(1-methylpyrrol-2-yl)pyridine]	7.9e-05 mg/mL	0.5 µM	5 nM	0.5 µM and 0.079 µg/mL	effect on CAM area [1]: slight increase
CN1CCCC1c1cccnc1 (stereo not drawn) [nicotine, 1-methyl-2-(3-pyridyl)pyrrolidine]	0.081 mg/mL	500 µM	50000 nM	500 µM and 81 µg/mL	effect on CAM area [1]: significant stimulatory effect
c1cncc([C@@H]2CCCN2)c1 [nornicotine, 3-(1-pyrrolidin-2-yl)pyridine]	0.0074 mg/mL	50 µM	5000 nM	50 µM and 7.4 µg/mL	effect on CAM area [1]: significant stimulatory effect
